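The compound was tested at five concentrations on cells cultured in 96-well plates, with a 48-hour exposure period. At the GI50, growth is halved.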 The source made the active and inactive calls. Rule as the data show it: active = GI50 up to about 1.1 µM and inactive = higher.
Tests used:
Experiment in all cases: inhibition of tumour cell growth, NCI panel, 48 h
[1] = system: A498
[2] = system: ACHN
[3] = system: HCC 2998
[4] = system: HOP-62
[5] = system: KM12
[6] = system: MCF7
[7] = system: MDA-MB-435
[8] = system: MDA-N
[9] = system: NCI-H226
[10] = system: NCI-H23
[11] = system: NCI-H522
[12] = system: PC-3
[13] = system: RPMI-8226
[14] = system: SF-539
[15] = system: SNB-75
[16] = system: SR
[17] = system: TK-10
[18] = system: OVCAR-3
[19] = system: OVCAR-8
[20] = system: CAKI-1

Q: Which GI50 [1] does the source give for CCCCCCCCCC[S+]([O-])CC(CO)NC(=O)/C=C/c1c(C)nc(O)nc1O (centres undefined) here?
A: Its GI50 is 1.09 µM (active).

Q: And the GI50 [2]?
A: Its GI50 is 13.4 µM (inactive).

Q: What about the GI50 [3] of the same molecule?
A: Its GI50 is 0.244 µM (active).

Q: What about the GI50 [4] of the same molecule?
A: The GI50 was 1.06 µM (active).

Q: And the GI50 [5]?
A: The GI50 was 0.202 µM (active).

Q: What about the GI50 [6] of the same molecule?
A: The GI50 was 0.252 µM (active).

Q: What about the GI50 [7] of the same molecule?
A: The GI50 was 14 µM (inactive).

Q: And the GI50 [8]?
A: The GI50 was 25.1 µM (inactive).

Q: What about the GI50 [9] of the same molecule?
A: Its GI50 is 0.8 µM (active).

Q: And the GI50 [10]?
A: Its GI50 is 0.504 µM (active).

Q: What about the GI50 [11] of the same molecule?
A: Its GI50 is 0.0938 µM (active).

Q: And the GI50 [12]?
A: Its GI50 is 1.43 µM (inactive).

Q: What about the GI50 [13] of the same molecule?
A: The GI50 was 1.04 µM (active).

Q: And the GI50 [14]?
A: Its GI50 is 0.484 µM (active).

Q: And the GI50 [15]?
A: The GI50 was 0.272 µM (active).

Q: And the GI50 [16]?
A: Its GI50 is 65.2 µM (inactive).

Q: What about the GI50 [17] of the same molecule?
A: The GI50 was 1.76 µM (inactive).

Q: What does the source list for Cc1nc(N)c(N2CCN([N+](=O)[O-])CC2)c(O)n1?
A: GI50 [1]: > 100 µM (inactive); GI50 [2]: > 100 µM (inactive); GI50 [3]: > 100 µM (inactive); GI50 [4]: > 100 µM (inactive); GI50 [5]: > 100 µM (inactive); GI50 [6]: > 100 µM (inactive); GI50 [7]: > 100 µM (inactive); GI50 [8]: > 100 µM (inactive); GI50 [9]: > 100 µM (inactive); GI50 [10]: > 100 µM (inactive); GI50 [11]: > 100 µM (inactive); GI50 [18]: > 100 µM (inactive); GI50 [19]: > 100 µM (inactive); GI50 [12]: > 100 µM (inactive); GI50 [13]: > 100 µM (inactive); GI50 [14]: > 100 µM (inactive); GI50 [15]: > 100 µM (inactive); GI50 [16]: > 100 µM (inactive); GI50 [17]: > 100 µM (inactive)

Q: Cc1ccc(C(=O)/C=C2\Nc3cccnc3NC2=O)cc1 was tested. Which GI50 [1] did it give?
A: The GI50 was > 100 µM (inactive).

Q: And the GI50 [2]?
A: Its GI50 is > 100 µM (inactive).

Q: What about the GI50 [20] of the same molecule?
A: Its GI50 is > 100 µM (inactive).

Q: And the GI50 [3]?
A: Its GI50 is > 100 µM (inactive).

Q: And the GI50 [4]?
A: The GI50 was 33.6 µM (inactive).

Q: And the GI50 [5]?
A: The GI50 was > 100 µM (inactive).

Q: And the GI50 [6]?
A: Its GI50 is > 100 µM (inactive).

Q: What about the GI50 [7] of the same molecule?
A: Its GI50 is > 100 µM (inactive).

Q: And the GI50 [8]?
A: Its GI50 is > 100 µM (inactive).

Q: What about the GI50 [9] of the same molecule?
A: The GI50 was > 100 µM (inactive).

Q: And the GI50 [10]?
A: Its GI50 is > 100 µM (inactive).

Q: What about the GI50 [11] of the same molecule?
A: The GI50 was 16.6 µM (inactive).

Q: What about the GI50 [18] of the same molecule?
A: Its GI50 is > 100 µM (inactive).

Q: What about the GI50 [19] of the same molecule?
A: Its GI50 is 51.2 µM (inactive).

Q: And the GI50 [12]?
A: The GI50 was > 100 µM (inactive).

Q: What about the GI50 [13] of the same molecule?
A: Its GI50 is > 100 µM (inactive).

Q: And the GI50 [14]?
A: Its GI50 is 60.4 µM (inactive).

Q: What about the GI50 [16] of the same molecule?
A: The GI50 was > 100 µM (inactive).

Q: And the GI50 [17]?
A: The GI50 was > 100 µM (inactive).

Q: How did the GI50 [1] turn out when CCOC(=O)N1N(c2ccccc2)C(=O)C1(c1ccccc1)c1ccccc1 was run?
A: The GI50 was > 100 µM (inactive).

Q: And the GI50 [2]?
A: The GI50 was > 100 µM (inactive).

Q: What about the GI50 [20] of the same molecule?
A: Its GI50 is > 100 µM (inactive).

Q: What about the GI50 [3] of the same molecule?
A: Its GI50 is > 100 µM (inactive).

Q: What about the GI50 [4] of the same molecule?
A: The GI50 was 14.9 µM (inactive).

Q: And the GI50 [5]?
A: The GI50 was 73.5 µM (inactive).

Q: What about the GI50 [6] of the same molecule?
A: The GI50 was 25.9 µM (inactive).

Q: And the GI50 [7]?
A: Its GI50 is > 100 µM (inactive).

Q: What about the GI50 [8] of the same molecule?
A: Its GI50 is > 100 µM (inactive).

Q: What about the GI50 [9] of the same molecule?
A: The GI50 was 99.1 µM (inactive).

Q: And the GI50 [10]?
A: Its GI50 is > 100 µM (inactive).

Q: What about the GI50 [11] of the same molecule?
A: The GI50 was 44.8 µM (inactive).

Q: What about the GI50 [18] of the same molecule?
A: The GI50 was 40.5 µM (inactive).

Q: What about the GI50 [19] of the same molecule?
A: The GI50 was > 100 µM (inactive).

Q: What about the GI50 [12] of the same molecule?
A: Its GI50 is 19.2 µM (inactive).

Q: And the GI50 [13]?
A: The GI50 was 14.7 µM (inactive).

Q: And the GI50 [14]?
A: The GI50 was > 100 µM (inactive).

Q: And the GI50 [16]?
A: The GI50 was 87.5 µM (inactive).

Q: What about the GI50 [17] of the same molecule?
A: Its GI50 is > 100 µM (inactive).

Q: CN(C(=O)C12C3C4(C(=O)O)C1(C(=O)N(C)C(C)(C)C)C1C2(C(=O)O)C3(C(=O)N(C)C(C)(C)C)C14C(=O)N(C)C(C)(C)C)C(C)(C)C (centres undefined) was tested. Which GI50 [1] did it give?
A: The GI50 was > 100 µM (inactive).

Q: And the GI50 [2]?
A: The GI50 was > 100 µM (inactive).

Q: And the GI50 [20]?
A: Its GI50 is > 100 µM (inactive).

Q: And the GI50 [3]?
A: Its GI50 is > 100 µM (inactive).

Q: What about the GI50 [4] of the same molecule?
A: Its GI50 is > 100 µM (inactive).

Q: What about the GI50 [5] of the same molecule?
A: The GI50 was > 100 µM (inactive).

Q: What about the GI50 [6] of the same molecule?
A: The GI50 was > 100 µM (inactive).

Q: And the GI50 [7]?
A: The GI50 was > 100 µM (inactive).

Q: And the GI50 [8]?
A: Its GI50 is > 100 µM (inactive).

Q: And the GI50 [10]?
A: Its GI50 is > 100 µM (inactive).

Q: And the GI50 [11]?
A: Its GI50 is > 100 µM (inactive).

Q: What about the GI50 [18] of the same molecule?
A: The GI50 was > 100 µM (inactive).

Q: What about the GI50 [19] of the same molecule?
A: Its GI50 is > 100 µM (inactive).

Q: What about the GI50 [12] of the same molecule?
A: Its GI50 is > 100 µM (inactive).

Q: What about the GI50 [14] of the same molecule?
A: Its GI50 is > 100 µM (inactive).

Q: What about the GI50 [16] of the same molecule?
A: The GI50 was > 100 µM (inactive).

Q: What about the GI50 [17] of the same molecule?
A: The GI50 was > 100 µM (inactive).

Q: How did the GI50 [1] turn out when CN1C(=O)N(c2ccccc2)C2(CCN(CC3COc4ccccc4O3)CC2)C1=O (centres undefined) was run?
A: The GI50 was > 100 µM (inactive).

Q: What about the GI50 [2] of the same molecule?
A: Its GI50 is > 100 µM (inactive).

Q: And the GI50 [20]?
A: Its GI50 is 32.4 µM (inactive).

Q: What about the GI50 [3] of the same molecule?
A: The GI50 was > 100 µM (inactive).

Q: And the GI50 [4]?
A: The GI50 was > 100 µM (inactive).

Q: And the GI50 [5]?
A: Its GI50 is > 100 µM (inactive).

Q: And the GI50 [6]?
A: The GI50 was > 100 µM (inactive).

Q: And the GI50 [7]?
A: The GI50 was > 100 µM (inactive).

Q: What about the GI50 [8] of the same molecule?
A: The GI50 was > 100 µM (inactive).

Q: And the GI50 [9]?
A: Its GI50 is 59.2 µM (inactive).

Q: What about the GI50 [10] of the same molecule?
A: The GI50 was 94.4 µM (inactive).

Q: And the GI50 [11]?
A: The GI50 was > 100 µM (inactive).

Q: What about the GI50 [18] of the same molecule?
A: Its GI50 is 19.8 µM (inactive).

Q: And the GI50 [19]?
A: The GI50 was > 100 µM (inactive).

Q: And the GI50 [12]?
A: Its GI50 is > 100 µM (inactive).

Q: And the GI50 [13]?
A: The GI50 was 99.1 µM (inactive).

Q: What about the GI50 [14] of the same molecule?
A: Its GI50 is > 100 µM (inactive).

Q: What about the GI50 [16] of the same molecule?
A: Its GI50 is > 100 µM (inactive).

Q: And the GI50 [17]?
A: Its GI50 is > 100 µM (inactive).

Q: With CC(C)CC(=O)CC(O)C(Cl)(Cl)Cl (centres undefined) as the molecule, how does the GI50 [1] read?
A: The GI50 was > 100 µM (inactive).

Q: And the GI50 [2]?
A: Its GI50 is > 100 µM (inactive).

Q: And the GI50 [20]?
A: The GI50 was > 100 µM (inactive).

Q: What about the GI50 [3] of the same molecule?
A: Its GI50 is > 100 µM (inactive).

Q: What about the GI50 [4] of the same molecule?
A: Its GI50 is > 100 µM (inactive).

Q: What about the GI50 [5] of the same molecule?
A: Its GI50 is > 100 µM (inactive).

Q: What about the GI50 [6] of the same molecule?
A: The GI50 was > 100 µM (inactive).

Q: And the GI50 [7]?
A: Its GI50 is > 100 µM (inactive).

Q: And the GI50 [8]?
A: Its GI50 is > 100 µM (inactive).

Q: What about the GI50 [9] of the same molecule?
A: The GI50 was > 100 µM (inactive).

Q: And the GI50 [10]?
A: Its GI50 is > 100 µM (inactive).

Q: And the GI50 [11]?
A: The GI50 was 3.95 µM (inactive).

Q: What about the GI50 [18] of the same molecule?
A: Its GI50 is > 100 µM (inactive).

Q: And the GI50 [19]?
A: Its GI50 is > 100 µM (inactive).

Q: What about the GI50 [12] of the same molecule?
A: Its GI50 is > 100 µM (inactive).

Q: And the GI50 [13]?
A: The GI50 was > 100 µM (inactive).

Q: And the GI50 [15]?
A: Its GI50 is > 100 µM (inactive).

Q: What about the GI50 [16] of the same molecule?
A: The GI50 was > 100 µM (inactive).

Q: And the GI50 [17]?
A: The GI50 was > 100 µM (inactive).

Reference: ChEMBL document CHEMBL1201862, “PubChem BioAssay data set” (2004)
